In patent US8835476B2, “Synthesis of novel antimicrobials” (priority 2005, dated 2014):
Converted amounts (≈) assume the structure as drawn. Where two headings read alike, the source gives them in different places.

Legend:
Format in all cases: cell-based
[1] = system: Ps. aeruginosa clinical isolates; assay: Broth microdilution MIC, clinical isolate strains (NAUTICA); conditions: unit assumed
How it was run: (§1)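 Clinical organisms, randomly drawn NAUTICA urinary isolates, and ATCC reference strains tested by NCCLS M7-A6 broth microdilution at 5×10^5 CFU/ml. Incubation 16 to 20 hours, 35° C, ambient air; MIC defined as lowest concentration without visible growth.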

[2] = system: P. rettgeri CAP; assay: Broth microdilution MIC, reference strains; conditions: Providencia rettgeri, read-out: MIC (growth inhibition, microdilution method)
Description: All clinical isolates tested were from The North American Urinary Tract Infection Collaborative Alliance (NAUTICA) which is a UTI surveillance study involving 40 medical centres (30 from the US and 10 from Canada). Each centre submitted up to 50 consecutive outpatient midstream urine isolates. All isolates were deemed significant urinary tract pathogens by individual laboratory criteria and identified to the species level by each laboratory's existing protocol. Isolates were transported to the coordinating laboratory (Health Sciences Centre, Winnipeg, Canada) on charcoal swabs. Only one isolate per patient was accepted. Upon receipt, isolates were cultured by the coordinating laboratory, stocked in skim milk, and stored at −80° C. awaiting reference antibiotic susceptibility testing. Elementary demographic information was also compiled for each isolate. Isolates were selected randomly from the above pool to represent 18 different species of Enterobacteriaceae and non-Enterobacteriaceae. An average of 5 strains of each species were tested for a total of 93 organisms. In addition, 23 reference (ATCC) [both gram negative and gram positive] strains were tested.
Susceptibilities to the compounds were determined using the National Committee for Clinical Laboratory Standards (NCCLS) M7-A6 broth microdilution method. […] DMSO controls were incorporated into the panel to mimic the quantity of DMSO used in dissolving some of the compounds at the higher concentrations. Each final panel well volume was 100 μl with a bacterial inoculum of 5×10^5 colony forming units (CFU)/ml. Panels were read following 16 to 20 hours of incubation at 35° C. in ambient air. The minimum inhibitory concentration (MIC) was defined as the lowest concentration of antimicrobial inhibiting visible growth. Quality control (QC) was performed using four ATCC QC organisms that were run with every batch set up to insure reproducibility.

[3] = system: S. liquefaciens ATCC 27592; assay: Broth microdilution MIC, ATCC strains; conditions: read-out: MIC (growth inhibition, microdilution method)
How it was run: as §1

[4] = system: Pr. stuartii ATCC 33672; assay: Broth microdilution MIC, ATCC strains; conditions: Providencia stuartii
How it was run: as §1

[5] = system: S. saprophyticus ATCC 15305; assay: Broth microdilution MIC, ATCC strains; conditions: Staphylococcus saprophyticus
How it was run: as §1

[6] = system: S. epidermidis ATCC 14990; assay: Broth microdilution MIC, ATCC strains; conditions: Staphylococcus epidermidis
How it was run: as §1

[7] = system: S. warneri ATCC 27836; assay: Broth microdilution MIC, ATCC strains; conditions: Staphylococcus warneri
How it was run: as §1

[8] = system: E. cloacae ATCC 23355; assay: Broth microdilution MIC, ATCC strains; conditions: Enterobacter cloacae
How it was run: as §1

[9] = system: E. faecium ATCC 35667; assay: Broth microdilution MIC, ATCC strains; conditions: Enterococcus faecium, ATCC35667, read-out: MIC (growth inhibition, microdilution method)
How it was run: as §1

[10] = system: S. simulans ATCC 27848; assay: Broth microdilution MIC, ATCC strains; conditions: Staphylococcus simulans, ATCC27848, read-out: MIC (growth inhibition, microdilution method)
How it was run: as §1

[11] = system: P. mirabilis ATCC 29245; assay: Broth microdilution MIC, ATCC strains; conditions: Proteus mirabilis
How it was run: as §1

[12] = ATCC33672, Pr. stuartii ATCC 33672, read-out: MIC (growth inhibition, microdilution method)
[13] = ATCC15305, read-out: MIC (growth inhibition, microdilution method)
[14] = ATCC27836, S. warneri ATCC 27836, read-out: MIC (growth inhibition, microdilution method)
[15] = ATCC23355, read-out: MIC (growth inhibition, microdilution method)
[16] = ATCC29245, read-out: MIC (growth inhibition, microdilution method)
[17] = ATCC33672, read-out: MIC (growth inhibition, microdilution method)
[18] = ATCC15305, S. saprophyticus ATCC 15305, read-out: MIC (growth inhibition, microdilution method)
[19] = ATCC14990, S. epidermidis ATCC 14990, read-out: MIC (growth inhibition, microdilution method)
[20] = ATCC23355, E. cloacae ATCC 23355, read-out: MIC (growth inhibition, microdilution method)
[21] = ATCC29245, P. mirabilis ATCC 29245, read-out: MIC (growth inhibition, microdilution method)
[22] = Table 4B, each table row is one clinical isolate

| Structure (SMILES) | MIC, PS. AER ([1]; clinical isolates, one table line per isolate) [µg/mL] | MIC [2] [µg/mL] | MIC [3] [µg/mL] | MIC [4, 12] [µg/mL] | MIC [5, 13] [µg/mL] | MIC ([6]; ATCC14990, read-out: MIC (growth inhibition, microdilution method)) [µg/mL] | MIC [7, 14] [µg/mL] | MIC [8, 15] [µg/mL] | MIC [9] [µg/mL] | MIC [10] [µg/mL] | MIC [11, 16] [µg/mL] | MIC [4, 17] [µg/mL] | MIC [5, 18] [µg/mL] | MIC [6, 19] [µg/mL] | MIC ([7]; ATCC27836, read-out: MIC (growth inhibition, microdilution method)) [µg/mL] | MIC ([2]; P. rettgeri (CAP in Table 1)) [µg/mL] | MIC ([3]; S. liquefaciens ATCC 27592) [µg/mL] | MIC [8, 20] [µg/mL] | MIC [11, 21] [µg/mL] | MIC, PS. AER [1, 22] [µg/mL] |
| --- | --- | --- | --- | --- | --- | --- | --- | --- | --- | --- | --- | --- | --- | --- | --- | --- | --- | --- | --- | --- |
| O=C(O)c1cc(-c2nnn[nH]2)c(C(=O)O)s1 [DNM-111, 3-(1H-tetrazol-5-yl)thiophene-2,5-dicarboxylic acid] | 128 (≈ 533 µM) | 128 (≈ 533 µM) | 128 (≈ 533 µM) | 256 (≈ 1070 µM) | 128 (≈ 533 µM) | 128 (≈ 533 µM) | 256 (≈ 1070 µM) | 128 (≈ 533 µM) | 8 (≈ 33.3 µM) | 256 (≈ 1070 µM) | 128 (≈ 533 µM) |  |  |  |  |  |  |  |  |  |
| Cn1nnc(-c2cc(C(=O)O)sc2C(=O)O)n1 [DNM-112, 3-(2-Methyl-2H-tetrazol-5-yl)-thiophene-2,5-dicarboxylic acid] |  | > 256 | > 256 |  |  |  | 64 (≈ 252 µM) | > 256 | 8 (≈ 31.5 µM) | 8 (≈ 31.5 µM) | > 256 | > 256 | 64 (≈ 252 µM) | 16 (≈ 62.9 µM) |  |  |  |  |  |  |
| COC(=O)c1cc(-c2nnn(C)n2)c(C(=O)OC)s1 [DNM-114, 3-(2-methyl-2H-tetrazol-5-yl)-thiophene-2,5-dicarboxylic acid dimethyl ester] |  | 128 (≈ 453 µM) | 128 (≈ 453 µM) |  | 128 (≈ 453 µM) |  |  | 128 (≈ 453 µM) | 8 (≈ 28.3 µM) | 256 (≈ 907 µM) | 128 (≈ 453 µM) | 128 (≈ 453 µM) |  | 64 (≈ 227 µM) | 128 (≈ 453 µM) |  |  |  |  |  |
| O=C(O)c1cc(-c2nn[nH]n2)cs1 [DNM-116, 4-(2H-Tetrazol-5-yl)-thiophene-2-carboxylic acid] |  |  |  | 32 (≈ 163 µM) |  |  | 32 (≈ 163 µM) |  | 8 (≈ 40.8 µM) | > 32 |  |  | 16 (≈ 81.6 µM) | 16 (≈ 81.6 µM) |  | 32 (≈ 163 µM) | 16 (≈ 81.6 µM) | 16 (≈ 81.6 µM) | 32 (≈ 163 µM) |  |
| O=C(O)c1cc(-c2nnn[nH]2)c(-c2ccc(F)cc2)s1 [DNM-121, 5-(4-Fluoro-phenyl)-4-(1H-tetrazol-5-yl)-thiophene-2-carboxylic acid] |  |  |  | 64 (≈ 220 µM) |  |  | 64 (≈ 220 µM) |  | 8 (≈ 27.6 µM) | 64 (≈ 220 µM) |  |  | 64 (≈ 220 µM) | 64 (≈ 220 µM) |  | 64 (≈ 220 µM) | 64 (≈ 220 µM) | 64 (≈ 220 µM) | 64 (≈ 220 µM) |  |
| Cn1nnc(-c2cc(C(=O)O)sc2-c2ccc(F)cc2)n1 [DNM-123, 5-(4-fluorophenyl)-4-(2-methyl-2H-tetrazol-5-yl)thiophene-2-carboxylic acid] |  |  |  | > 8 |  |  | > 8 |  | 8 (≈ 26.3 µM) | > 8 |  |  | > 8 | 4 (≈ 13.1 µM) |  | > 8 | 8 (≈ 26.3 µM) | 8 (≈ 26.3 µM) | > 8 |  |
| CCOC(=O)c1cc(-c2nnn[nH]2)c(-c2ccc(F)cc2)s1 [DNM-124, 5-(4-Fluoro-phenyl)-4-(1H-tetrazol-5-yl)-thiophene-2-carboxylic acid ethyl ester] |  |  |  | > 64 |  |  | > 64 |  | > 64 | > 64 |  |  | > 64 | 64 (≈ 201 µM) |  | > 64 | > 64 | > 64 | > 64 |  |
| CCOC(=O)c1cc(-c2nnn(C)n2)c(-c2ccc(F)cc2)s1 [DNM-125, ethyl 5-(4-fluorophenyl)-4-(2-methyl-2H-tetrazol-5-yl)thiophene-2-carboxylate] |  |  |  | > 16 |  |  | > 16 |  | > 16 | > 16 |  |  | > 16 | > 16 |  | > 16 | > 16 | > 16 | > 16 | > 16 |
| Fc1ccc(-c2cc(-c3nnn[nH]3)c(-c3ccc(F)cc3)s2)cc1 [DNM-131, 5-(2,5-Bis(4-fluorophenyl)thiophen-3-yl)-1H-tetrazole] |  |  |  | > 32 |  |  | > 32 |  | > 32 | > 32 |  |  | > 32 | > 32 |  | > 32 | > 32 | > 32 | > 32 | > 32 |
| Cn1nnc(-c2cc(-c3ccc(F)cc3)sc2-c2ccc(F)cc2)n1 [DNM-132, 5-(2,5-bis(4-fluorophenyl)thiophen-3-yl)-2-methyl-2H-tetrazole] |  |  |  | > 16 |  |  | > 16 |  | > 16 | > 16 |  |  | > 16 | > 16 |  | > 16 | > 16 | > 16 | > 16 | > 16 |
| Cn1nnnc1-c1cc(-c2ccc(F)cc2)sc1-c1ccc(F)cc1 [DNM-133, 5-(2,5-Bis(4-fluorophenyl)thiophen-3-yl)-1-methyl-1H-tetrazole] |  |  |  | > 16 |  |  | > 16 |  | > 16 | > 16 |  |  | > 16 | > 16 |  | > 16 | > 16 | > 16 | > 16 | > 16 |
| O=C(O)c1sc(-c2ccc(F)cc2)cc1-c1nnn[nH]1 [DNM-141, 5-(4-Fluoro-phenyl)-3-(1H-tetrazol-5-yl)-thiophene-2-carboxylic acid] |  |  |  | > 16 |  |  | > 16 |  | > 16 | > 16 |  |  | > 16 | > 16 |  | > 16 | > 16 | > 16 | > 16 | > 16 |
